Test systems include MCF7; BT-549; MDA-MB-435; Hs-578T; T47D; MDA-N.
Common to all, as to experiment: inhibition of tumour cell growth, NCI panel, 48 h

Molecules are shown by their SMILES.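 Growth conditions: 96-well plates. Treatment: test compound, 48 hours, 5 concentrations. Analysis: linear interpolation between bracketing concentrations; unreached endpoints set to highest concentration. Here, GI50 denotes the concentration required for 50% inhibition of growth.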 Active and inactive are the calls of the source. Rule as the data show it: active = GI50 up to about 1.1 µM and inactive = higher. Where a SMILES comes first, the peptide text is derived from it. The star is where a group is joined. Boc = CC(C)(C)OC(=O)*

Turning to `BrP(NC1CCCCCC1)(c1ccccc1)(c1ccccc1)c1ccccc1`, the GI50 in the assay with MCF7 is 2.5 µM (inactive); in the assay on BT-549, 3.26 µM (inactive); with MDA-MB-435, 2.15 µM (inactive); with Hs-578T, 3 µM (inactive); with T47D it was 1.93 µM (inactive).

`CCN(CCO)C(=O)C1(c2ccccc2)CCCCC1`: the GI50 in the assay on MCF7, in the assay on MDA-MB-435, with Hs-578T and in the assay with T47D was > 10 µM (inactive) throughout.

Turning to `CC(C)=CCN1c2ccc(Cl)cc2NC(=O)CC1C` (stereo unspecified), the GI50 is 21.4 µM (inactive) in the assay with MCF7; 21.8 µM (inactive) with BT-549; 21.7 µM (inactive) in the assay with MDA-N; 19.5 µM (inactive) in the assay with MDA-MB-435; 24.3 µM (inactive) with Hs-578T; 29.6 µM (inactive) in the assay with T47D.

For the molecule `Cc1ccc(S(=O)(=O)NC(=O)NC(CCCCNC(=N)N)C(=O)O)cc1` (stereo unspecified), the GI50 in the assay with MCF7, in the assay with BT-549, in the assay with MDA-N, in the assay on Hs-578T and in the assay on T47D was > 100 µM (inactive) each time.

On to `CN(C)Cc1cc(/N=N/c2ccc(Cl)cc2)ccc1OC(=O)c1ccccc1`, for which the GI50 is 13.2 µM (inactive) in the assay with MCF7; 22.1 µM (inactive) with BT-549; 16.5 µM (inactive) with MDA-N; 15.7 µM (inactive) in the assay with MDA-MB-435; 16.4 µM (inactive) in the assay on Hs-578T.

Consider `CC(=O)[C@@]1(c2ccccc2)CC2(CCN(C)CC2)O[C@H]1C`, for which the GI50 in the assay on BT-549, in the assay with MDA-N, in the assay on MDA-MB-435 and with T47D was > 100 µM (inactive) each time.

With `O=C1/C(=C/c2ccc(Oc3ccccc3)cc2)N=C(c2ccccc2)N1c1ccc(S(=O)(=O)Nc2nccs2)cc1`, the GI50 in the assay on MCF7 is 14.3 µM (inactive); in the assay with MDA-N, 3.22 µM (inactive); in the assay with MDA-MB-435, 2.62 µM (inactive); in the assay on Hs-578T, 39.4 µM (inactive); with T47D, 12.8 µM (inactive).

With `Cc1nc2n(c1/C=C1/C(=O)Nc3cccc(Cl)c31)CCS2`, the GI50 is 14.2 µM (inactive) with MCF7; 25.1 µM (inactive) in the assay with BT-549; 57.9 µM (inactive) in the assay with MDA-N; 33.5 µM (inactive) in the assay on MDA-MB-435; 22 µM (inactive) with Hs-578T; 15.1 µM (inactive) with T47D.

For `CC(C)(C)OC(=O)NC(Cc1ccc(OCc2ccccc2)cc1)C(=O)NC(COCc1ccccc1)C(=O)Oc1c(Cl)c(Cl)c(Cl)c(Cl)c1Cl` (stereo unspecified), the GI50 is 22.4 µM (inactive) in the assay with MCF7; 20 µM (inactive) with BT-549; 26.4 µM (inactive) in the assay on MDA-N; 21.7 µM (inactive) in the assay on MDA-MB-435; 17.7 µM (inactive) with Hs-578T; 22.8 µM (inactive) in the assay with T47D.

With `COP(C)(=O)/C(Cc1ccccc1)=N\O` (stereo unspecified), the GI50 with MCF7, with MDA-N, in the assay with MDA-MB-435, with Hs-578T and with T47D was > 100 µM (inactive) throughout.

For the molecule `CN1CN(c2ccccc2)C2(CCN(CCCC(=O)c3cccs3)CC2)C1=O`, the GI50 in the assay with MCF7 is 25.2 µM (inactive); in the assay with MDA-N, 68.7 µM (inactive); with T47D, 29 µM (inactive).

`CS(=O)(=O)c1n[nH]c2nc(O)nc(O)c12`: the GI50 in the assay on MCF7, in the assay with BT-549, in the assay with MDA-N, with MDA-MB-435, in the assay with Hs-578T and with T47D was > 10 µM (inactive) throughout.

Regarding `O=C(O)C1(Cc2ccc3c(c2)CCC3)Cc2cc3c(cc2C1)CCC3`, the GI50 in the assay on MCF7, with BT-549, with MDA-N, with MDA-MB-435 and in the assay with Hs-578T was > 100 µM (inactive) throughout.

With `CC(C)Oc1cccc(N2C(n3ccnc3)=Nc3ccncc3S2(=O)=O)c1`, the GI50 with MCF7 is 10.1 µM (inactive); with BT-549, 15.5 µM (inactive); with MDA-N, 12.8 µM (inactive); in the assay with MDA-MB-435, 11.9 µM (inactive); in the assay with Hs-578T, 19 µM (inactive); with T47D, 13.1 µM (inactive).

Consider `N#C/N=[N+](\[O-])c1ccc(C(=O)O)cc1`, for which the GI50 is 19.2 µM (inactive) in the assay with MCF7, 16.4 µM (inactive) in the assay on BT-549, 17.9 µM (inactive) in the assay with MDA-MB-435 and 30.8 µM (inactive) in the assay with Hs-578T.

Regarding `Cc1cnc2nc(-c3ccc4ccccc4c3)cc(O)c2c1`, the GI50 is 0.561 µM (active) in the assay with MCF7, > 100 µM (inactive) in the assay with BT-549, 0.449 µM (active) in the assay on Hs-578T and > 100 µM (inactive) with T47D.

With `COc1cc(CO)c(CC(=O)NCCCc2ccccc2)cc1OC`, the GI50 with BT-549 was > 100 µM (inactive); in the assay on MDA-N, 34.1 µM (inactive); in the assay with MDA-MB-435 it was 56 µM (inactive); with Hs-578T it was > 100 µM (inactive); in the assay on T47D, 15 µM (inactive).

As for `Cc1nc2ccc(S(=O)(=O)Nc3nccs3)cc2c(=O)n1NS(=O)(=O)c1nccs1`, the GI50 in the assay with MCF7 is 37.4 µM (inactive); in the assay with BT-549, > 100 µM (inactive); in the assay on MDA-N, > 100 µM (inactive); with MDA-MB-435, 40.3 µM (inactive); with Hs-578T it was > 100 µM (inactive); with T47D, > 100 µM (inactive).

In the case of `CCOC(=O)c1csc(NC(=O)CCN2CCCCC2)n1`, the GI50 in the assay with MCF7, in the assay with MDA-N, in the assay with MDA-MB-435 and in the assay with T47D was > 100 µM (inactive) in each case.

On to `CCOC(=O)c1cn2c(n1)sc1cc([N+](=O)[O-])ccc12`, for which the GI50 in the assay with MCF7 was > 100 µM (inactive); with BT-549, 74.6 µM (inactive); with MDA-MB-435, > 100 µM (inactive); in the assay with Hs-578T, > 100 µM (inactive); in the assay on T47D it was > 100 µM (inactive).

`COC(=O)[C@H](Cc1ccc(O)cc1)NC(=O)[C@H](Cc1ccc(O)cc1)NC(=O)OC(C)(C)C` (Boc-Tyr-Tyr-OMe): the GI50 is 43.8 µM (inactive) in the assay with MCF7, > 100 µM (inactive) with BT-549, > 100 µM (inactive) in the assay on MDA-N and > 100 µM (inactive) in the assay with Hs-578T.

In the case of `COc1cc(C)cc(OC)c1/C=C/C(=O)O`, the GI50 with BT-549 was > 100 µM (inactive); in the assay with MDA-N, > 100 µM (inactive); with MDA-MB-435, > 100 µM (inactive); in the assay with Hs-578T, 24.8 µM (inactive); in the assay on T47D it was > 100 µM (inactive).

As to `O=P1(O)c2ccccc2CS(=O)(=O)Cc2ccccc21`, the GI50 with MCF7, with BT-549, with MDA-N, in the assay on MDA-MB-435, in the assay on Hs-578T and in the assay with T47D was > 100 µM (inactive) each time.

`Oc1cc(O)c2c(c1)O[C@H](c1ccc(O)c(O)c1)[C@@H](O)C2` [CIANIDANOL]: the GI50 with MCF7, in the assay with MDA-N, with MDA-MB-435, in the assay on Hs-578T and in the assay with T47D was > 100 µM (inactive) throughout.

For the molecule `COC(=O)Cc1c([C@H]2[C@H](CC(=O)OC)c3ccccc3N2C(=O)C(F)(F)F)[nH]c2ccccc12`, the GI50 is 26 µM (inactive) in the assay with MCF7; 27.6 µM (inactive) with BT-549; 32.3 µM (inactive) in the assay with MDA-N; 21.9 µM (inactive) in the assay with MDA-MB-435; 22.8 µM (inactive) with Hs-578T; 36.5 µM (inactive) in the assay with T47D.

Take `COc1ccc(C(C2C(=O)N(C)C(=O)N(C)C2=O)C(F)(F)C(=O)N(C)C)cc1` (stereo unspecified): the GI50 in the assay on MCF7, in the assay on BT-549, in the assay with MDA-MB-435 and in the assay with T47D was > 100 µM (inactive) each time.

Regarding `C=CC[N+]12CN3CN(CN(C3)C1)C2`, the GI50 with MCF7 was 30.1 µM (inactive); in the assay on BT-549 it was 26.7 µM (inactive); with MDA-N it was 17.3 µM (inactive); in the assay with MDA-MB-435, 19.7 µM (inactive); in the assay on Hs-578T, > 100 µM (inactive); in the assay with T47D, 27 µM (inactive).

In the case of `S=C(Cc1ccc2c(c1)Sc1ccccc1O2)N1CCOCC1`, the GI50 in the assay with MCF7 was 36.7 µM (inactive); with MDA-N, 42.7 µM (inactive); in the assay on MDA-MB-435, 29.4 µM (inactive); with Hs-578T, 21.1 µM (inactive); in the assay on T47D it was 38.7 µM (inactive).

As to `CC(C)(CN1CCCCC1)C(=O)/C=C/c1c(Cl)cccc1Cl`, the GI50 in the assay with MCF7 was 1.29 µM (inactive); in the assay on BT-549, 1.86 µM (inactive); in the assay on MDA-N, 0.792 µM (active); with MDA-MB-435, 0.7 µM (active); in the assay on Hs-578T it was 2.17 µM (inactive); in the assay on T47D it was 0.421 µM (active).

Regarding `CC1(c2nc3ccccc3[nH]2)CCC(C#N)C(C)(C)O1` (stereo unspecified), the GI50 in the assay on MCF7, with BT-549, with MDA-N, with MDA-MB-435, in the assay on Hs-578T and with T47D was > 100 µM (inactive) throughout.

For the molecule `O=CNCNCCO`, the GI50 with MCF7, in the assay on BT-549, with Hs-578T and with T47D was > 100 µM (inactive) throughout.

On to `C(=C\Nc1ccc(Oc2ccccc2)cc1)/C=N/c1ccc(Oc2ccccc2)cc1`, for which the GI50 in the assay with MCF7 was 16.9 µM (inactive); in the assay on BT-549, 15.9 µM (inactive); in the assay on MDA-N, 16.2 µM (inactive); in the assay on MDA-MB-435, 17.4 µM (inactive); with Hs-578T, 19.9 µM (inactive).

`CC(C(=O)NCCNC(=O)CCC(=O)N(C)O)C(=O)NCCNC(=O)CCC(=O)N(C)O`: the GI50 in the assay with MCF7, in the assay on MDA-N, with MDA-MB-435, in the assay with Hs-578T and with T47D was > 100 µM (inactive) in each case.

As to `NC(=O)c1ccccc1NC(=O)C(=O)C(c1cnc2ccc([N+](=O)[O-])cc2n1)[N+](=O)[O-]` (stereo unspecified), the GI50 with MCF7 was 62.1 µM (inactive); in the assay with BT-549, > 100 µM (inactive); in the assay with MDA-MB-435, > 100 µM (inactive); with Hs-578T, > 100 µM (inactive); in the assay on T47D, > 100 µM (inactive).
